Experimental data as given in ChEMBL document CHEMBL4627311, “Discovery of 4-((1-(1H-imidazol-2-yl)alkoxy)methyl)pyridines as a new class of Trypanosoma cruzi growth inhibitors” (Bioorg Med Chem Lett, 2020).

How the values were obtained:
[1] = target: Sterol 14-alpha demethylase (Trypanosoma cruzi (strain CL Brener), UniProt Q7Z1V1); experiment: Inhibition of Trypanosoma cruzi CYP51
Trypanosoma cruzi = experiment: Antitrypanosomal activity against Trypanosoma cruzi; type: functional, organism-based

Sterol 14-alpha demethylase, sequence (Q7Z1V1 whole entry): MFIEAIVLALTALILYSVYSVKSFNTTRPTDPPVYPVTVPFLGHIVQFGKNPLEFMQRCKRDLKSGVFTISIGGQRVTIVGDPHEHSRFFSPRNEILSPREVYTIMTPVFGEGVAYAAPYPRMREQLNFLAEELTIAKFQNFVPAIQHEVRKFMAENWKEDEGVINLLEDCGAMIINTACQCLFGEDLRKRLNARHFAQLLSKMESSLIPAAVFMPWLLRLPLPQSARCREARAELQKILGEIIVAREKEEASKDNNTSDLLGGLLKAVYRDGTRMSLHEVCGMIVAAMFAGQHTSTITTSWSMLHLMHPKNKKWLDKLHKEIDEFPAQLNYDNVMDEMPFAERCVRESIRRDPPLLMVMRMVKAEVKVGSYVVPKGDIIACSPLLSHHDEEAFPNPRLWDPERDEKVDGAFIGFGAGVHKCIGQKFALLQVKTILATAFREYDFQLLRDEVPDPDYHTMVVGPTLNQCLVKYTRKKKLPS

Compound	IC50 [1] [nM]	EC50 (Trypanosoma cruzi) [nM]
CCC(=O)CCCCCC(Oc1ccc2ccccc2c1)c1ncc(Cc2ccccc2)[nH]1 (centres undefined)	2900	–
CC(OCc1ccncc1)c1ncc(-c2ccc3ccccc3c2)[nH]1 (centres undefined)	77	–
CCC(=O)CCCCCC(Oc1cc2ccccc2nc1OC)c1ncc(Cc2ccncc2)[nH]1 (centres undefined)	–	2000
CCC(=O)CCCCCC(OCc1ccncc1)c1ncc(-c2ccc3ccccc3c2)o1 (centres undefined)	53	–
CCC(=O)CCCCCC(Oc1ccc2ccccc2c1)c1ncc(Cc2ccncc2)[nH]1 (stereo in doubt; 11)	52	–
CCC(=O)CCCCCC(Oc1ccc2ccccc2c1)c1ncc(Cc2ccncc2)[nH]1 (stereo in doubt; 34)	41	–
CCC(=O)CCCCCC(Oc1ccc2ccccc2c1)c1ncc(Cc2ccncc2)[nH]1 (stereo in doubt; 35)	34	–
O=C(Cn1ccnc1[N+](=O)[O-])NCc1ccccc1 [BENZNIDAZOLE]	–	2000
CC1CS(=O)(=O)CCN1/N=C/c1ccc([N+](=O)[O-])o1 (centres undefined) [NIFURTIMOX]	–	8000
